Marks after values point to notes of the source that are not given here.
How the values were obtained:
[1] = Antioxidative activity of superoxide anions (PMS-NADH-NBT system method); format: biochemical; details: absorbance at 560 nm after 5 min, pH7.4 phosphate buffer
Text: The determination of antioxidative activity of superoxide anions: O2-• was a free radicals with a longer life in a body. In free radical chain reaction. O2-• acted as an initiator to promote the generation of other free radicals, causing further harm to the body, which was closely related to many diseases. Therefore, the ability of the sample to remove O2-• was usually used as an important indicator of the activity of an antioxidative substance. Flavonoid and a sample of flavonoid and polysaccharide mixed that was prepared in Embodiment 1 were all prepared with 70% ethyl alcohol. A polysaccharide sample, positive control vitamin C (Vc) and vitamin E (Ve) were prepared with distilled water. 1.280 mg/mL stock solution was prepared with each substance to be tested and then diluted for 7 concentration gradients for later use. A PMS-NADH-NBT system method was used to determine the activity of scavenging superoxide anions (O2-•). […] When being added to the PMS-NADH-NBT system, an antioxidative substance inhibited the reaction of O2-• with NBT. By measuring absorbency, the ability to scavenge free radicals of antioxidant could be calculated. […] A light absorption value of the solution was measured at 560 nm after 5 min. […]

[2] = Antioxidative activity of DPPH (DPPH free radical scavenging); format: biochemical; details: absorbance at 519 nm after 30 minutes in dark at room temperature; mean of 3 repeats
Method: Antioxidative activity of DPPH: DPPH belonged to a synthetic stable free radical, which has characteristic absorption in a visible light region. A method for measuring DPPH was simple and fast and had good reproducibility. Flavonoid and a sample of flavonoid and polysaccharide mixed that was prepared in Embodiment 1 were all prepared with 70% ethyl alcohol. The polysaccharide sample, positive control vitamin C (Vc) and vitamin E (Ve) were prepared with distilled water. 1.280 mg/mL stock solution was prepared with each substance to be tested and diluted for 7 concentration gradients for later use. 75 μL of a solution in each concentration to be tested was precisely added to a 96-ferment plate, and then added with 150 μL of 0.1 m MDPPH 70% ethyl alcohol solution. A blank control was set for each reaction hole of each concentration. The blank control was 75 μL of the solution to be tested and 150 μL of 70% ethyl alcohol. The total volume of reaction was 225 μL. The solution was shook well, and kept standing in dark at room temperature for 30 minutes. […] A decrease in absorbency indicated an increase in free radical scavenging activity. Each sample was repeated 3 times for each concentration. Scavenging rate=[A0-(A1-A2)]/A0 A0 was a light absorption value of the DPPH solution plus a solution to be tested at a concentration of zero. […]

Row | IC50 of O2-· [1] | IC50 of DPPH [2] | Structure (SMILES)
1 | 353.33 ± 4.16^e μg/mL | 5.33 ± 0.45^a μg/mL | Cc1c(C)c2c(c(C)c1O)CC[C@@](C)(CCC[C@H](C)CCC[C@H](C)CCCC(C)C)O2 [Ve, vitamin E]
2 | 208.83 ± 10.41^d μg/mL | 2.95 ± 0.39^a μg/mL | O=C1O[C@H]([C@@H](O)CO)C(O)=C1O [Vc, vitamin C]
